Laboratory results published in patent publication EP4585599A1, “NITROGEN-CONTAINING FUSED RING COMPOUND, INTERMEDIATE THEREOF, PREPARATION METHOD THEREFOR AND USE THEREOF” (Hangzhou Synrx Therapeutics Biomedical Technology Co., Ltd., priority 2022, dated 2024).
Values after ≈ are worked out from the molar mass of the structure shown. Where two headings read alike, the source gives them in different places.

Legend:
cells = conditions: Homo sapiens, DLD-1, 240 h
Solubility assay = conditions: phosphate buffer, pH 7.4, aqueous buffer, kinetic from dmso stock
[1] = Mouse PK assay after oral administration; conditions: for MRT / bioavailability / half-life: male, ICR, mouse, po; for MRT / bioavailability / half-life / Area under curve (0-t; hr * ng/mL) / Peak concentration: plasma; for Time to peak / Area under curve (0-t; hr * ng/mL) / Peak concentration: mice, oral
in vitro = conditions: mouse, microsomes, pH 7.4
[2] = target: T1, helicase domain of the Pol θ protein (Homo sapiens, UniProt O75417); assay: Biochemical Activity Assay (ADP Glo Assay) of Pol θ inhibitor, ATPase activity; conditions: ssDNA substrate, read-out: Biochemical assay IC50
T1 construct: The helicase domain of the Pol θ protein was purified from insect protein expression system; made in house; host or cells: insect protein expression system

[3] = mouse, microsomes
[4] = read-out: Cell viability assay IC50
[5] = read-out: Cell viability assay IC50 (nM), CTG assay, CellTiter Glo, read on Day 10, cell line not given
[6] = ADP-Glo assay, ATPase activity of Pol θ helicase domain
[7] = read-out: Cell viability assay IC50 (nM), CTG on Day 10, cell line not given (method: DLD1 and DLD1^-/- cells)
[8] = ADP-Glo, 60 min at room temperature

T1 sequence (O75417 102-554 limits assumed): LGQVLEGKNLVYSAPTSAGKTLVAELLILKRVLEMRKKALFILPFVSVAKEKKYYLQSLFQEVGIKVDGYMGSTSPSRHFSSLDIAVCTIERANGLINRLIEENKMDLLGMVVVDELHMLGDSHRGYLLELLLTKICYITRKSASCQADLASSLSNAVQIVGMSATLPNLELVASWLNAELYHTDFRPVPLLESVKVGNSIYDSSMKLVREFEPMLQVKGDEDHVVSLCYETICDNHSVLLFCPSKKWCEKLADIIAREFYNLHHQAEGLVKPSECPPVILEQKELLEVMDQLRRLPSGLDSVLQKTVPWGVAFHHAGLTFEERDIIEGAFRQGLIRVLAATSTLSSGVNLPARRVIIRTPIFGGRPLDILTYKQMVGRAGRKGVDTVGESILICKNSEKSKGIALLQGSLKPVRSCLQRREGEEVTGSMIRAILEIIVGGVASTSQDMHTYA

solubility at 2 h (Solubility assay) [µM] | MRT ([1]; 30 mg/kg) [h] | bioavailability ([1]; 30 mg/kg) [%] | half-life ([1]; 30 mg/kg) [h] | Time to peak ([1]; administration dose 30 mg/kg) [h] | Area under curve (0-t; hr * ng/mL) ([1]; administration dose 30 mg/kg) [µg·h/mL] | Peak concentration ([1]; administration dose 30 mg/kg) [ng/mL] | half-life at 1 µM (in vitro) [h] | IC50 [2, 6] [nM] | IC50 [2, 8] [nM] | SMILES | IC50 (cells; [5]) [nM] | IC50 (cells; [7]) [nM] | also measured
4.61 (≈ 2.34 µg/mL) | 4.58 | 151 | 2.68 | 1.67 | 293.209 | 42933 | 10.5 | 1.84 | – | COc1cnc(Cl)cc1-c1cc(C)ncc1C(=O)Nc1nc2cnc(-c3c(C)nnn3C)cc2s1 [Example 175, 2'-chloro-N-(6-(1,4-dimethyl-1H-1,2,3-triazol-5-yl)thiazolo[4,5-c]pyridin-2-yl)-5'-methoxy-6-methyl-[4,4'-bipyridine]-3-carboxamide] | 10 | – | –
63.7 (≈ 33.4 µg/mL) | 5.91 | 206 | 5.1 | 0.25 | 429.051 | 43555 | – | 2.84 | – | COc1cnc(Cl)c(F)c1-c1cc(C)ncc1C(=O)Nc1nc2cnc(-c3c(C)nnn3C)cc2s1 [Example 172] | – | – | Half-life (T1/2, min) [3]: ∞
82.6 (≈ 44.8 µg/mL) | 3.95 | 259 | 2.16 | 0.67 | 852.39 | 156130 | – | 3.63 | – | COc1cnc(Cl)c(F)c1-c1cc(C)ncc1C(=O)Nc1nc2cnc(-c3c(C)nnn3C)c(F)c2s1 [Example 217] | < 1.52 | – | Half-life (T1/2, min) [3]: ∞
79.7 (≈ 40.3 µg/mL) | – | – | – | – | – | – | 14.4 | 1.91 | < 50 | COc1cnc(Cl)cc1-c1cc(C)ncc1C(=O)Nc1nc2cnc(-c3c(C)cnn3C)cc2s1 [Example 87] | 6.81 | < 100 | MRT ([1]; 100 mg/kg): 3.45 h; half-life ([1]; 100 mg/kg): 2.12 h; Time to peak ([1]; administration dose 100 mg/kg): 0.25 h; Area under curve (0-t; hr * ng/mL) ([1]; administration dose 100 mg/kg): 300.735 µg·h/mL; Peak concentration ([1]; administration dose 100 mg/kg): 74833 ng/mL
61.8 (≈ 32.4 µg/mL) | 3.38 | 178 | 2.2 | 0.75 | 385.297 | 89917 | 28.9 | 3.31 | – | COc1cnc(Cl)cc1-c1cc(C)ncc1C(=O)Nc1nc2cnc(-c3c(C)nnn3C)c(F)c2s1 [Example 216] | < 1.52 | – | –

Continued, compound first:

SMILES | solubility at 2 h (Solubility assay) [µM] | MRT ([1]; 30 mg/kg) [h] | bioavailability ([1]; 30 mg/kg) [%] | half-life ([1]; 30 mg/kg) [h] | Time to peak ([1]; administration dose 30 mg/kg) [h] | Area under curve (0-t; hr * ng/mL) ([1]; administration dose 30 mg/kg) [µg·h/mL] | Peak concentration ([1]; administration dose 30 mg/kg) [ng/mL] | half-life at 1 µM (in vitro) [h] | IC50 [2, 6] [nM] | IC50 [2, 8] [nM] | IC50 (cells; [5]) [nM] | IC50 (cells; [7]) [nM] | also measured
COc1cnc(Cl)cc1-c1cc(C)ncc1C(=O)Nc1nc2ccc(N3CCC(O)CC3)nc2s1 [Example 46] | 61.5 (≈ 31.4 µg/mL) | – | – | – | – | – | – | 7.9 | 8.31 | < 50 | – | – | IC50 (cells; read-out: Cell viability assay IC50 (nM)): < 100 nM; IC50 [4]: 60.7 nM; MRT ([1]; 25 mg/kg): 4.13 h; bioavailability ([1]; 25 mg/kg): 127%; half-life ([1]; 25 mg/kg): 1.59 h; Time to peak ([1]; administration dose 25 mg/kg): 2.0 h; Area under curve (0-t; hr * ng/mL) ([1]; administration dose 25 mg/kg): 46.041 µg·h/mL; Peak concentration ([1]; administration dose 25 mg/kg): 7217 ng/mL
COc1cnc(Cl)cc1-c1cc(C)ncc1C(=O)Nc1nc2cnc(C3=CCC(O)CC3)cc2s1 (stereo not drawn) [Example 11] | 76.4 (≈ 38.8 µg/mL) | – | – | – | – | – | – | 3.75 | 3.11 | < 50 | 11.2 | < 100 | MRT ([1]; 25 mg/kg): 3.15 h; half-life ([1]; 25 mg/kg): 2.19 h; Time to peak ([1]; administration dose 25 mg/kg): 0.83 h; Area under curve (0-t; hr * ng/mL) ([1]; administration dose 25 mg/kg): 26.324 µg·h/mL; Peak concentration ([1]; administration dose 25 mg/kg): 7407 ng/mL
COc1cnc(Cl)cc1-c1cc(C)ncc1C(=O)Nc1nc2ncc(N3CCC(O)CC3)nc2s1 [Example 70] | 70.6 (≈ 36.1 µg/mL) | – | – | – | – | – | – | 8.88 | 2.73 | < 50 | 14.2 | < 100 | MRT ([1]; 100 mg/kg): 2.2 h; half-life ([1]; 100 mg/kg): 2.91 h; Time to peak ([1]; administration dose 100 mg/kg): 0.5 h; Area under curve (0-t; hr * ng/mL) ([1]; administration dose 100 mg/kg): 60.434 µg·h/mL; Peak concentration ([1]; administration dose 100 mg/kg): 22767 ng/mL
